# Source: patent US5684012A, “Dimeric piperidine, tetrahydropyridine and piperazine derivatives” (H. Lundbeck A/S, priority 1992, dated 1997)
# Counter-ions that a name gives are not always drawn.
# Molecular target: sigma receptors
# Assay: Inhibition of ^3H-DTG binding to sigma receptors in rat brain in vitro
# Details: Table I; 2 nM ^3H-DTG, rat brain without cerebellum, 25° C., 20 min
row,Compound,IC50 [nM]
1,"Fc1ccc2c(c1)C1(CCN(CCCCN3CCC4(CC3)OCc3ccc(F)cc34)CC1)OC2 [Compound 1g, 1,4-Bis[6-fluoro-spiro[isobenzofuran-1(3 H),4'-piperidin]-1'-yl]butane]",0.44
2,"O=S(=O)(CCN1CCC2(CC1)OCc1ccccc12)CCN1CCC2(CC1)OCc1ccccc12 [Compound 9a, Bis[2-spiro[isobenzofuran-1(3 H),4'-piperidin]-1'-ylethyl]sulphone]",1800
3,"c1ccc2c(c1)CSC21CCN(CCCCN2CCC3(CC2)SCc2ccccc23)CC1 [Compound 1s, 1,4-Bis[spiro[isobenzothiophene-1(3 H),4'-piperidin]-1-yl]butane]",0.04
4,"c1ccc2c(c1)COC21CC2CCC(C1)N2CCCCN1C2CCC1CC1(C2)OCc2ccccc21 (stereo not drawn) [Compound 1n, 1,4-Bis[spiro[isobenzofuran-1(3 H),3'-8'-azabicyclo[3',2',1']octan]-8'-yl]butane]",99
5,"c1ccc2c(c1)CCC1(CCN(CCCCN3CCC4(CCc5ccccc5O4)CC3)CC1)O2 [Compound 1r, 1,4-Bis[3,4-dihydro-spiro[1-benzopyran-2,4'-piperidin]-1-yl]butane, difumarate]",130
6,"c1ccc2c(c1)COC21CCN(CCCCN2CCC3(CC2)OCc2ccccc23)CC1 [Compound 1a, 1,4-Bis[spiro[isobenzofuran-1(3 H),4'-piperidin]-1'-yl]butane]",0.64
7,"c1ccc2c(c1)COC21CCN(CCSCCN2CCC3(CC2)OCc2ccccc23)CC1 [Compound 8a, Bis[2-spiro[isobenzofuran-1(3 H),4'-piperidin]-1-ylethyl]sulphide, difumarate]",0.78
8,"c1ccc2c(c1)COC21CCN(CCOCCN2CCC3(CC2)OCc2ccccc23)CC1 [Compound 10a, Bis[2-spiro[isobenzofuran-1(3 H),4'-piperidin]-1'-ylethyl]ether,dihydrochloride]",2.5
9,"Fc1ccc(C2CCN(CCCCN3CCC(c4ccc(F)cc4)CC3)CC2)cc1 [Compound 1b, 1,4-Bis[4-(4-fluorophenyl)piperidin-1-yl]butane]",0.41
10,"c1ccc2c(c1)CCOC21CCN(CCCCN2CCC3(CC2)OCCc2ccccc23)CC1 [Compound 1t, 1,4-Bis[spiro[1-benzopyran-2,4'-piperidin]-1-yl]butane, 1.25 fumarate]",0.38
11,"Fc1ccc(C2=CCN(CCCCN3CC=C(c4ccc(F)cc4)CC3)CC2)cc1 [Compound 6a, 1,4-Bis[4-(4-fluorophenyl)-1,2,3,6-tetrahydropyridin-1-yl]butane]",0.31
12,"c1ccc2c(c1)CCCC21CCN(CCCCN2CCC3(CCCc4ccccc43)CC2)CC1 [Compound 1q, 1,4-Bis[3,4-dihydro-spiro[naphthalene-1(2 H),4'-piperidin]-1'-yl]butane]",4
13,"Fc1ccc(C(CCN2CCC3(CC2)OCc2ccccc23)CCN2CCC3(CC2)OCc2ccccc23)cc1 [Compound 7b, 1,5-Bis[spiro[isobenzofuran-1(3 H),4'-piperidin]-1'-yl]-3-(4-fluorophenyl)pentane, difumarate]",0.72
14,"Cc1ccc2c(c1)COC21CCN(CCCCCCN2CCC3(CC2)OCc2cc(C)ccc23)CC1 [Compound 11a, 1,6-Bis[5-methyl-spiro[isebenzofuran-1(3 H),4'-piperidin]-1-yl]hexane]",9.7
15,"FC(F)(F)c1ccc2c(c1)C1(CCN(CCCCN3CCC4(CC3)OCc3ccc(C(F)(F)F)cc34)CC1)OC2 [Compound 1j, 1,4-Bis[6-(trifluoromethyl)-spiro[isobenzofuran-1(3 H),4'-piperidin]-1-yl]butane, dihydrochloride]",19
16,"c1ccc2c(c1)COC21CCN(CCCCCN2CCC3(CC2)OCc2ccccc23)CC1 [Compound 1h, 1,5-Bis[spiro[isobenzofuran-1(3 H),4'-piperidin]-1-yl]pentane tetrafumarate]",2
17,"Fc1ccc(C2=CC3CCC(C2)N3CCCCN2C3C=C(c4ccc(F)cc4)CC2CC3)cc1 [Compound 1o, 1,4-Bis[3-(4-fluorophenyl)-8-azabicyclo[3,2,1]oct-2-en-8-yl]butane]",74
18,"Fc1ccc(C2CCN(CCN3CCC(c4ccc(F)cc4)CC3)CC2)cc1 [Compound 2d, 1,2-Bis[4-(4-fluorophenyl)piperidin-1-yl]ethane]",0.5
19,"C1=CC2(CCN(CCCCN3CCC4(C=Cc5ccccc54)CC3)CC2)c2ccccc21 [Compound 4a, 1,4-Bis[spiro[ind-2-en-1,4'-piperidin]-1'-yl]butane]",4

row,Compound,IC50 [nM]
1,"Fc1ccc(N2CCN(CCCCN3CCN(c4ccc(F)cc4)CC3)CC2)cc1 [Compound 1e, 1,4-Bis[4-(4-fluorophenyl)piperazin-1-yl]butane]",0.89
2,"Fc1cccc2c1C1(CCN(CCCCN3CCC4(CC3)OCc3cccc(F)c34)CC1)OC2 [Compound 1m, 1,4-Bis[7-fluoro-spiro[isobenzofuran-1(3 H),4'-piperidin]-1'-yl]butane]",5.1
3,"c1ccc2c(c1)COC21CCN(CCCN2CCC3(CC2)OCc2ccccc23)CC1 [Compound 2a, 1,3-Bis[spiro[isobenzofuran-1(3 H),4'-piperidin]-1'-yl]propane difumarate]",0.76
4,"O=C(CN1CCN(c2ccc(F)cc2)CC1)CN1CCN(c2ccc(F)cc2)CC1 [Compound 13a, 1,3-Bis[4-(4-fluorophenyl)piperazin-1-yl]-2-propanone]",2500
5,"OC(CN1CCC(c2ccc(F)cc2)CC1)CN1CCC(c2ccc(F)cc2)CC1 [Compound 12a, 1,3-Bis[4-(4-fluorophenyl)piperidin-1-yl]-2-propanol]",2.4
6,"Fc1ccc(C2CCN(CCCCCN3CCC(c4ccc(F)cc4)CC3)CC2)cc1 [Compound 1d, 1,5-Bis[4-(4-fluorophenyl)piperidin-1-yl]pentane, 2.5 fumarate]",1.4
7,"CN(CCN1CCC2(CC1)OCc1ccccc12)CCN1CCC2(CC1)OCc1ccccc12 [Compound 3b, N,N-Bis[2-spiro[isobenzofuran-1(3 H),4'-piperidin]-1'-ylethyl]-N-methylamine, trihydrochloride]",4.9
8,"Fc1ccc(C2CCN(CCN(CCN3CCC(c4ccc(F)cc4)CC3)c3ccccc3)CC2)cc1 [Compound 7a, N,N-Bis[2-[4-(4-fluorophenyl)piperidin-1-yl]ethyl]aniline]",3.6
9,"C1=CC2(CCN(CCCCN3CCC4(C=Cc5ccccc5O4)CC3)CC2)Oc2ccccc21 [Compound 1p, 1,4-Bis[spiro[1-benzopyran-2,4'-piperidin]-1-yl]butane, difumarate]",32
10,"c1ccc2c(c1)COCC21CCN(CCCCN2CCC3(CC2)COCc2ccccc23)CC1 [Compound 1k, 1,4-Bis[1,3-dihydro-spiro[2-benzopyran-4,4'-piperidin]-1'-yl]butane]",8.7
11,"c1ccc2c(c1)CCC21CCN(CCCCN2CCC3(CCc4ccccc43)CC2)CC1 [Compound 5a, 1,4-Bis[spiro[indan-1,4'-piperidin]-1'-yl]butane]",3.1
12,"c1ccc2c(c1)OC1(CCN(CCCCN3CCC4(CC3)Oc3ccccc3O4)CC1)O2 [Compound 1i, 1,4-Bis[spiro[1,3-benzodioxol-2,4'-piperidin]-1'-yl]butane]",45
13,"c1ccc2c(c1)COC1(CCN(CCCCN3CCC4(CC3)Cc3ccccc3CO4)CC1)C2 [Compound 1c, 1,4-Bis[1,4-dihydro-spiro[2-benzopyran-3,4'-piperidin]-1'-yl]butane]",16
14,"c1ccc2c(c1)COC21CCN(CCCCCCN2CCC3(CC2)OCc2ccccc23)CC1 [Compound 1f, 1,6-Bis[spiro[isobenzofuran-1(3 H),4'-piperidin]-1'-yl]hexane]",0.71
15,"Cc1ccc2c(c1)COC21CCN(CCCCN2CCC3(CC2)OCc2cc(C)ccc23)CC1 [Compound 1l, 1,4-Bis[5-methyl-spiro[isobenzofuran-1(3 H),4'-piperidin]-1-yl]butane]",23
16,"c1ccc2c(c1)COC21CCN(CCN2CCC3(CC2)OCc2ccccc23)CC1 [Compound 2c, 1,2-Bis[spiro[isobenzofuran-1(3 H),4'-piperidin]-1'-yl]ethane]",0.23
17,"Fc1ccc(C2CCN(CCCN3CCC(c4ccc(F)cc4)CC3)CC2)cc1 [Compound 2b, 1,3-Bis[4-(4-fluorophenyl)piperidin-1-yl]propane]",0.17
18,"c1ccc2c(c1)OCCC21CCN(CCCCN2CCC3(CCOc4ccccc43)CC2)CC1 [Compound 1u, 1,4-Bis[spiro[1-benzopyran-4,4'-piperidin]-1'-yl]butane]",0.17
19,"c1ccc2c(c1)COC21CCN(CCN(CCN2CCC3(CC2)OCc2ccccc23)C2CCCC2)CC1 [Compound 3a, N,N-Bis[2-spiro[isobenzofuran-1(3 H),4'-piperidin]-1'-ylethyl]-N-cyctopentylamine, trihydrochloride]",1.5

# System: not given
# Assay: not given
# Details: clinical; Snyder and Largent 1989; cited from earlier work
row,Compound,effects in the treatment of psychosis
1,"C[C@@H]1CN(CCCn2c3ccccc3c3ccccc32)C[C@H](C)N1 [Rimcazole, reference compound]",clinically shows effects in the treatment of psychosis
